Legend:
[1] = system: Leishmania infantum; assay: Antileishmanial activity against amastigote form of Leishmania infantum infected in BALB/c mouse macrophages assessed as reduction in parasite infection at 12.5 uM measured after 72 hrs by Giemsa staining based optical microscopy relative to control; assay type: functional
[2] = molecular target: Trypanothione reductase (Leishmania infantum) (UniProt A4HSF7); assay: Inhibition of Leishmania infantum Trypanothione reductase expressed in Escherichia coli BL21 (DE3) assessed as enzyme residual activity using trypanothione as substrate at 100 uM preincubated for 3 mins followed NADPH addition by spectrophotometric analysis
Sequence of Trypanothione reductase (Leishmania infantum) (A4HSF7 as listed by the source): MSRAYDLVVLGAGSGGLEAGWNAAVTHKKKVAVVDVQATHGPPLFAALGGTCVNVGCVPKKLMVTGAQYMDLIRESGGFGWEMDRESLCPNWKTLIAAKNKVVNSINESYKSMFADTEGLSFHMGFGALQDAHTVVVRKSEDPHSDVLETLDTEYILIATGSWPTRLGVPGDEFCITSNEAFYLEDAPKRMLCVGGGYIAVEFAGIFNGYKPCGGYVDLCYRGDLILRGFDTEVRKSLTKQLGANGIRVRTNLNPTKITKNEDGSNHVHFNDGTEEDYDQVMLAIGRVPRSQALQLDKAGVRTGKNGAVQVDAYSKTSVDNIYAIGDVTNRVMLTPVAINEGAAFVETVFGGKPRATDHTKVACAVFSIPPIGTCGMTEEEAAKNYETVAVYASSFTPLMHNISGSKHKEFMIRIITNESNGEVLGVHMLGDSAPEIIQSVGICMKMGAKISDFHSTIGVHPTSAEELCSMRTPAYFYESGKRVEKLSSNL

[3] = molecular target: Trypanothione reductase (Leishmania infantum) (UniProt A4HSF7); assay: Inhibition of Leishmania infantum Trypanothione reductase expressed in Escherichia coli BL21 (DE3) assessed as enzyme residual activity using trypanothione as substrate at 10 uM preincubated for 3 mins followed NADPH addition by spectrophotometric analysis
[4] = (§1) Cytotoxicity against PMA-differentiated human THP-1 cells assessed as reduction in cell viability measured after 72 hrs by MTT assay; assay type: toxicity, cell-based; conditions: PMA-differentiated THP-1 cells
[5] = Selectivity index, ratio of CC50 for cytotoxicity against human THP-1 cells to EC50 for antileishmanial activity against axenic amastigote form of Leishmania infantum MHOM/TN/80/IPT1; assay type: toxicity, cell-based; conditions: read-out: Ratio CC50/EC50
[6] = (§2) Cytotoxicity against BALB/c mouse peritoneal macrophages assessed as reduction in cell viability measured after 72 hrs by MTT assay; assay type: toxicity, cell-based, Peritoneal macrophage; conditions: BALB/c, peritoneal macrophages
[7] = system: Leishmania infantum; assay: Antileishmanial activity against axenic amastigote form of Leishmania infantum MHOM/TN/80/IPT1 assessed as parasite growth inhibition measured after 72 hrs by MTT assay; assay type: functional, organism-based; conditions: MHOM/TN/80/IPT1, 72 h
[8] = system: THP-1; assay: as §1; assay type: toxicity, cell-based; conditions: thp-1, 72 h
[9] = system: Peritoneal macrophage; assay: as §2; assay type: toxicity, cell-based; conditions: peritoneal macrophage, 72 h
[10] = system: glutathione reductase versus Leishmania infantum trypanothione reductase; assay: Selectivity index, ratio of IC50 for inhibition of human glutathione reductase expressed in Escherichia coli cells to IC50 for inhibition of Leishmania infantum Trypanothione reductase expressed in Escherichia coli BL21 (DE3); assay type: toxicity; conditions: read-out: Ratio IC50

With O=C(NCCc1ccc(F)cc1)c1ccc(CNC(=O)N2CC[N+](CCCc3ccccc3)(Cc3ccc(Cl)c(Cl)c3)CC2)o1 as the molecule, how does the inhibition at 12.5 µM [1] read?
The inhibition at 12.5 µM was 40%.

With CC(=O)N1CCN(CCCc2ccccc2)CC1 as the molecule, how does the Activity [2] read?
Its Activity is 77.7%.

For O=C(NCCc1ccc(F)cc1)c1ccco1, which Activity [2] is on record?
The Activity was 85.3%.

With O=C(NCCc1ccc(F)cc1)c1ccc(CN(C(=O)N2CCN(CCCN3c4ccccc4Sc4ccc(C(F)(F)F)cc43)CC2)c2ccc(F)cc2)o1 as the molecule, how does the Activity [3] read?
Its Activity is 70.8%.

And the CC50 at 72 h [4]?
Its CC50 at 72 h is 23.4 µM.

What about the selectivity ratio [5] of the same molecule?
Its selectivity ratio is 1.8.

What about the CC50 at 72 h [6] of the same molecule?
Its CC50 at 72 h is 30.7 µM.

What about the EC50 [7] of the same molecule?
Its EC50 is 13 µM.

For O=C(O)c1ccc(N(Cc2ccc(C(=O)NCCc3ccc(F)cc3)o2)C(=O)N2CCN(CCCc3ccccc3)CC2)cc1, which selectivity ratio [5] is on record?
Its selectivity ratio is > 2.

What does the source list for O=C(NCCc1ccc(F)cc1)c1ccc(CN(C(=O)N2CCN(CCCN3c4ccccc4Sc4ccc(Cl)cc43)CC2)c2ccc(F)cc2)o1?
CC50 [8]: 6.5 µM; selectivity ratio [5]: 0.5; CC50 [9]: 9.1 µM; selectivity ratio [10]: 0.4

For C[C@@H]1[C@H](O)[C@@H](C)/C=C/C=C/C=C/C=C/C=C/C=C/C=C/[C@H](O[C@@H]2O[C@H](C)[C@@H](O)[C@H](N)[C@@H]2O)C[C@@H]2O[C@](O)(C[C@@H](O)C[C@@H](O)[C@H](O)CC[C@@H](O)C[C@@H](O)CC(=O)O[C@H]1C)C[C@H](O)[C@H]2C(=O)O [AMPHOTERICIN B], which EC50 [7] is on record?
Its EC50 is 0.5 µM.

What does the source list for O=C(NCCc1ccccc1)c1ccc(CN(C(=O)N2CCN(Cc3ccc(Cl)c(Cl)c3)CC2)c2ccc(F)cc2)o1?
Activity [3]: 94.1%; CC50 at 72 h [4]: 11.7 µM; selectivity ratio [5]: 1.1; CC50 at 72 h [6]: 14.4 µM; EC50 [7]: 10.3 µM

— ChEMBL document CHEMBL5344440, “Fragment Merging, Growing, and Linking Identify New Trypanothione Reductase Inhibitors for Leishmaniasis” (J Med Chem, 2024)
